Patent publication US20070287718A1 (priority 2003, published 2007)

Columns and labels:
Cdk9/cyclin T1 = Cdk9/cyclin T1 (Homo sapiens, UniProt P50750); details: CDK 9/Cyclin T (McClue et al., 2002); cited from earlier work
Mcl-1 mRNA = assay: Real time PCR of Mcl-1 mRNA in LP-1 cells; assay type: cell-based; details: normalised to 28S rRNA
XG-1 = assay: Induction of apoptosis by apo2.7 immunostaining; assay type: cell-based, human
Excerpt: (§1) The induction of apoptosis at day 3 by apo2.7 was investigated by immunostaining.

MDN = assay: Induction of apoptosis by apo2.7 immunostaining; assay type: cell-based, human
Excerpt: as §1

XG-6 = assay: Induction of apoptosis by apo2.7 immunostaining; assay type: cell-based, human
Excerpt: as §1

[1] = system: multiple myeloma cell lines; assay: Apoptosis by TUNEL, flow cytometry; assay type: cell-based; details: 30 μM CYC202
Description: All cell lines were obtained from the DSMZ (Deutsche Sammlung von Mikroorganismen und Zellkulturen).
Cells were seeded onto 90 mm diameter plates. […] Cells were harvested at various time points after addition of the drug. After washing once in PBS, cells were fixed in ice-cold 70% v/v ethanol and stored for up to 2 weeks at −20° C. Cells were washed twice in PBS +1% w/v BSA to remove fixative and re-suspended in PBS containing 50 μg/ml propidium iodide and 50 μg/ml RnaseA. After incubation at room temperature for 20 min, cells were analysed using flow cytometry.
A Becton Dickinson LSR flow cytometer was used for these studies, in accordance with the manufacturers recommendations. […] Red fluorescence (575±26 nm) was acquired on a linear scale and pulse width analysis was used to exclude cell doublets and aggregates from the analysis. Cells with a DNA content of between 2 n and 4 n were designated as being in G1, S or G2/M phases of the cell cycle, as defined by the level of red fluorescence. […] The number of cells in each cell cycle compartment was expressed as a percentage of the total number of cells present. Analysis of apoptosis was determined using terminal deoxynucleotidyltransferase dUTP nick end labelling (TUNEL) using the APO-DIRECT kit from BD biosciences (catalog number 556381) according to the manufacturer's instructions.

Mcl-1 [2] = assay: Western blot, Mcl-1 protein levels in myeloma cell lines; assay type: cell-based
RNA polII on Ser-2 [3] = assay: Western blotting of RNA pol II phosphorylation, MDN cells; assay type: cell-based, human; details: 30 μM, seven hours
Excerpt: (§2) The downregulation of Mcl-1 preceded the induction of apoptosis.

RNA polII on Ser-2 [4] = assay: Western blotting of RNA pol II phosphorylation, XG-6 cells; assay type: cell-based, human; details: XG-6, 30 μM, seven hours
Excerpt: as §2

Mcl-1 [5] = assay: Western blotting of Mcl-1 expression, XG-1 cells; assay type: cell-based, human; details: XG-1, 30 μM, seven hours
Excerpt: as §2

Mcl-1 [6] = assay: Western blotting of Mcl-1 expression, XG-6 cells; assay type: cell-based, human; details: XG-6, 30 μM, seven hours
Excerpt: as §2

RNA polII on Ser-2 [7] = assay: Western blotting of RNA pol II phosphorylation, XG-1 cells; assay type: cell-based, human; details: XG-1, 30 μM, seven hours
Excerpt: as §2

Mcl-1 [8] = assay: Western blotting of Mcl-1 expression, MDN cells; assay type: cell-based, human
Excerpt: as §2

[9] = system: RNA polymerase II at the serine 2 position of the CTD; assay: Western blot, RNA polymerase II CTD phosphorylation in LP-1 cells; details: 30 μM CYC202
[10] = system: non myeloma cell population; assay: Apoptosis in cells taken from a multiple myeloma patient (ex vivo); assay type: cell-based, human; set-up: dose or concentration left out as unconfirmed; details: […] μM CYC202, day 2, patient cells ex vivo
Excerpt: (§3) Myeloma cells were identified by their high expression of CD38.
(§4) Myeloma cells were identified by their high expression of CD38. The number of apoptotic cells in the myeloma cell population was of 46% whereas only 4% of the non myeloma cell population was induced on apoptosis.

[11] = system: myeloma cell population (high expression of CD38); assay: as above; assay type: cell-based, human; set-up: dose or concentration left out as unconfirmed; details: […] μM CYC202, day 2, patient cells ex vivo
Excerpt: as §3, §4

Hdm2 = assay: Western blot, Hdm2 levels in myeloma cells; assay type: cell-based
CTD of RNA polymerase II = assay: Western blot, phosphorylation of CTD of RNA polymerase II in myeloma cells; assay type: cell-based; details: 60 mM DRB
Excerpt: Arrow indicates cleaved form indicative of apoptosis.

Chain of Cdk9/cyclin T1 (P50750 whole entry, species assumed): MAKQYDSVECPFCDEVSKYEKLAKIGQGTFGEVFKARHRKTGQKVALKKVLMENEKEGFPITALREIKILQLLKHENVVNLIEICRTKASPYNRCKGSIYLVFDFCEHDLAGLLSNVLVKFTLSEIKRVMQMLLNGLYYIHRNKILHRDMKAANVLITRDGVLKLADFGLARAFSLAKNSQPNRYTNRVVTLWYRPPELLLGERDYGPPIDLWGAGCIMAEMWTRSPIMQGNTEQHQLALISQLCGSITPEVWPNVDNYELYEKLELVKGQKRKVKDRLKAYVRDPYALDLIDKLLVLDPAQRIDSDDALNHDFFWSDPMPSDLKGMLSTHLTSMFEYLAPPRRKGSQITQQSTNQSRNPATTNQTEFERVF
Chain of Cdk9/cyclin T1 (O60563 whole entry partner, species assumed): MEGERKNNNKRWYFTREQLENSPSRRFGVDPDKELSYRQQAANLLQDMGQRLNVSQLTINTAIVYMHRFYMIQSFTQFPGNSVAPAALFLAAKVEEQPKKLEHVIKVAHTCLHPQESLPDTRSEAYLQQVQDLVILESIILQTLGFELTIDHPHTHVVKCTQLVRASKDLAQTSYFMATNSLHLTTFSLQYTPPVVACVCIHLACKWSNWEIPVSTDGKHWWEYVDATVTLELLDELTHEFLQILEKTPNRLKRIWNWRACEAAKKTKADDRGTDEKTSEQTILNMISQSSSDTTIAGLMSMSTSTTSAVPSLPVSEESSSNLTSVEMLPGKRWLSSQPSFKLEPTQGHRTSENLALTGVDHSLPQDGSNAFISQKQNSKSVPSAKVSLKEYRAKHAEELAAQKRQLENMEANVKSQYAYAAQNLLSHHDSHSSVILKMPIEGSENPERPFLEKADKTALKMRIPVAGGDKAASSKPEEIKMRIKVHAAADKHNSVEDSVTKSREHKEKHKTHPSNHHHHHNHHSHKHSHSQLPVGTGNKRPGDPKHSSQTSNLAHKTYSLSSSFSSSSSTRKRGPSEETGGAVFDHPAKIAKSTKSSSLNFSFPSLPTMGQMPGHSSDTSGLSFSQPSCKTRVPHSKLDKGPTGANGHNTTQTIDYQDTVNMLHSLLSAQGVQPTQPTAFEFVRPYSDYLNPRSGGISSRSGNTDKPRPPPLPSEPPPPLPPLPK

SMILES: CC[C@H](CO)Nc1nc(NCc2ccccc2)c2ncn(C(C)C)c2n1 (racemic) [roscovitine, 2-[(1-ethyl-2-hydroxyethyl)amino]-6-benzylamine-9-isopropylpurine]
- inhibition in vitro (Cdk9/cyclin T1): low μM concentrations

SMILES: CC[C@H](CO)Nc1nc(NCc2ccccc2)c2ncn(C(C)C)c2n1 (single isomer, unassigned) [CYC202, 2-(1-R-hydroxymethylpropylamino)-6-benzylamino-9-isopurine]
- levels of Mcl-1 mRNA by real-time PCR (Mcl-1 mRNA): reduced
- induction of apoptosis at day 3 (apo2.7) (XG-1; XG1, 30 μM): significant and strong induction of apoptosis
- % of apoptotic cells after 3 day treatment (XG-1; XG-1, 7.5 μM): 2%
- % of apoptotic cells after 3 day treatment (XG-1; XG-1, 30 μM): 70%
- % of apoptotic cells after 3 day treatment (XG-1; XG-1, […] μM): 18%
- % of apoptotic cells after 3 day treatment (MDN; 3 μM): 3%
- % of apoptotic cells after 3 day treatment (MDN; 6 μM): 5%
- % of apoptotic cells after 3 day treatment (MDN; 12 μM): 41%
- induction of apoptosis at day 3 (apo2.7) (MDN; 12 μM): significant and strong induction of apoptosis
- % of apoptotic cells after 3 day treatment (XG-6; XG-6, 7.5 μM): 4%
- % of apoptotic cells after 3 day treatment (XG-6; XG-6, 30 μM): 74%
- induction of apoptosis at day 3 (apo2.7) (XG-6; XG-6, 30 μM): significant and strong induction of apoptosis
- % of apoptotic cells after 3 day treatment (XG-6; XG-6, […] μM): 15%
- induction of apoptosis (TUNEL) [1]: rapid apoptosis seen in the majority of cells by eight hours
- levels of Mcl-1 protein (Mcl-1 [2]; all cell lines studied, CYC202 treatment): rapidly reduced in all cell lines, by three hours
- phosphorylation of RNA polII on Ser-2 (RNA polII on Ser-2 [3]): total downregulation
- phosphorylation of RNA polII on Ser-2 (RNA polII on Ser-2 [4]): total downregulation
- Mcl-1 expression (Mcl-1 [5]): strong downregulation of Mcl-1
- Mcl-1 expression (Mcl-1 [6]): strong downregulation of Mcl-1
- phosphorylation of RNA polII on Ser-2 (RNA polII on Ser-2 [7]): total downregulation
- Mcl-1 expression (Mcl-1 [8]; 30 μM of CYC202, seven hours): total downregulation of Mcl-1
- Mcl-1 expression (Mcl-1 [8]; 6 or […] μM of CYC202, seven hours): decrease of Mcl-1 expression
- dephosphorylation of RNA polymerase II at serine 2 of the CTD [9]: rapid dephosphorylation of RNA polymerase II at the serine 2 position of the CTD of RNA pol II, by one and a half hours
- non myeloma cell population induced on apoptosis [10]: 4%
- number of apoptotic cells in the myeloma cell population [11]: 46%
- levels of Hdm2 (Hdm2; myeloma cell lines, CYC202 treatment): also reduced

SMILES: OC[C@H]1O[C@@H](n2cnc3cc(Cl)c(Cl)cc32)[C@H](O)[C@@H]1O [DRB, reference compound]
- Mcl-1 levels (Mcl-1 [2]; myeloma cells, 60 mM DRB): down regulates
- phosphorylation of the CTD of RNA polymerase II (CTD of RNA polymerase II): inhibits phosphorylation
- Hdm2 levels (Hdm2; myeloma cells, 60 mM DRB): down regulates
